In US20050220837A1, “Antimicrobial hyaluronic acid coatings for orthopedic implants” (priority 2003, published 2005):

Tested on: hTERT cells
Experiment: cytotoxicity of chlorhexidine on viability/adhesion of hTERT cells (Calcein AM / Ethidium homodimer)
Assay type: cell-based, human
Conditions: 24 h
Procedure: A separate experiment was carried out to measure the cytotoxicity of different chlorhexidine concentrations on the viability/adhesion of hTERT cells. hTERT cells were cultured as described above onto Thermanox discs in four well plates, but the DMEM with 10% FCS was inoculated with 0.1%, 1% or 10% chlorhexidine. Two control discs were also included containing just DMEM with 10% FCS, one disc was in the same plate as the chlorhexidine samples and the other in a separate four well plate. Plates were incubated at 37° C. for 24 h, before the media was removed and 1 ml DMEM (no FCS) containing 1 μl/ml Calcein AM (reacts with live cells) and 1 μl/ml Ethidium homodimer (reacts with dead cells) was added. The plates were incubated at 37° C. in the dark for a further 30 minutes, then the Thermanox discs were imaged using a Zeiss Epifluorescence microscope. Live well spread cells were seen on the sample not exposed to chlorhexidine, while dead cells were observed on the surface cultured in the same plate as samples exposed to chlorhexidine.

[H]/N=C(\N/C(=N/[H])NCCCCCCNC(=N)NC(=N)Nc1ccc(Cl)cc1)Nc1ccc(Cl)cc1 [chlorhexidine] was tested, and the “hTERT cells on Thermanox disc after exposure” value (0.1% chlorhexidine in DMEM with 10% FCS) was “No cells were seen” and the “hTERT cells on Thermanox disc after exposure” value (1% chlorhexidine in DMEM with 10% FCS) was “No cells were seen”.
